Results from PubChem BioAssay AID1259407 (Chemical Carcinogenesis Research Information System (CCRIS), 2018).
Calls of active or inactive are those of the source. How the calls were made is not given here.

Test system: CCRIS mutagenicity, Ames/micronucleus/aberration tests
Test: CCRIS mutagenicity studies
[1] = Test System: AMES SALMONELLA TYPHIMURIUM, Strain/Indicator: TA98, Metabolic Activation: NONE, Method: PREINCUBATION
[2] = Test System: AMES SALMONELLA TYPHIMURIUM, Strain/Indicator: TA100, Metabolic Activation: NONE, Method: PREINCUBATION
[3] = Test System: AMES SALMONELLA TYPHIMURIUM, Strain/Indicator: TA1535, Metabolic Activation: NONE, Method: PREINCUBATION
[4] = Test System: AMES SALMONELLA TYPHIMURIUM, Strain/Indicator: TA98, Metabolic Activation: NONE, Method: STANDARD PLATE
[5] = Test System: AMES SALMONELLA TYPHIMURIUM, Strain/Indicator: TA100, Metabolic Activation: NONE, Method: STANDARD PLATE
[6] = Test System: AMES SALMONELLA TYPHIMURIUM, Strain/Indicator: TA98, Metabolic Activation: RAT, LIVER, S-9, AROCLOR 1254, Method: STANDARD PLATE
[7] = Test System: AMES SALMONELLA TYPHIMURIUM, Strain/Indicator: TA100, Metabolic Activation: RAT, LIVER, S-9, AROCLOR 1254, Method: STANDARD PLATE

Question: What does the source list for `CCCCCc1cc(O)cc(O)c1`?
Answer: mutagenic call (Test System: AMES SALMONELLA TYPHIMURIUM, Strain/Indicator: TA97, Metabolic Activation: HAMSTER, LIVER, S-9, AROCLOR 1254 (10 OR 30%), Method: PREINCUBATION): inactive; negative; mutagenic call (Test System: AMES SALMONELLA TYPHIMURIUM, Strain/Indicator: TA97, Metabolic Activation: NONE, Method: PREINCUBATION): inactive; negative; mutagenic call (Test System: AMES SALMONELLA TYPHIMURIUM, Strain/Indicator: TA97, Metabolic Activation: RAT, LIVER, S-9, AROCLOR 1254 (10 OR 30%), Method: PREINCUBATION): inactive; negative; mutagenic call (Test System: AMES SALMONELLA TYPHIMURIUM, Strain/Indicator: TA98, Metabolic Activation: HAMSTER, LIVER, S-9, AROCLOR 1254 (10%), Method: PREINCUBATION): inactive; negative; mutagenic call (Test System: AMES SALMONELLA TYPHIMURIUM, Strain/Indicator: TA98, Metabolic Activation: HAMSTER, LIVER, S-9, AROCLOR 1254 (30%), Method: PREINCUBATION): inactive; negative; mutagenic call [1]: inactive; negative; mutagenic call (Test System: AMES SALMONELLA TYPHIMURIUM, Strain/Indicator: TA98, Metabolic Activation: RAT, LIVER, S-9, AROCLOR 1254 (10%), Method: PREINCUBATION): inactive; negative; mutagenic call (Test System: AMES SALMONELLA TYPHIMURIUM, Strain/Indicator: TA98, Metabolic Activation: RAT, LIVER, S-9, AROCLOR 1254 (30%), Method: PREINCUBATION): inactive; negative; mutagenic call (Test System: AMES SALMONELLA TYPHIMURIUM, Strain/Indicator: TA100, Metabolic Activation: HAMSTER, LIVER, S-9, AROCLOR 1254 (10%), Method: PREINCUBATION): inactive; negative; mutagenic call (Test System: AMES SALMONELLA TYPHIMURIUM, Strain/Indicator: TA100, Metabolic Activation: HAMSTER, LIVER, S-9, AROCLOR 1254 (30%), Method: PREINCUBATION): inactive; negative; mutagenic call [2]: inactive; negative; mutagenic call (Test System: AMES SALMONELLA TYPHIMURIUM, Strain/Indicator: TA100, Metabolic Activation: RAT, LIVER, S-9, AROCLOR 1254 (10%), Method: PREINCUBATION): inactive; negative; mutagenic call (Test System: AMES SALMONELLA TYPHIMURIUM, Strain/Indicator: TA100, Metabolic Activation: RAT, LIVER, S-9, AROCLOR 1254 (30%), Method: PREINCUBATION): inactive; negative; mutagenic call (Test System: AMES SALMONELLA TYPHIMURIUM, Strain/Indicator: TA1535, Metabolic Activation: HAMSTER, LIVER, S-9, AROCLOR 1254 (10 OR 30%), Method: PREINCUBATION): inactive; negative; mutagenic call [3]: inactive; negative; mutagenic call (Test System: AMES SALMONELLA TYPHIMURIUM, Strain/Indicator: TA1535, Metabolic Activation: RAT, LIVER, S-9, AROCLOR 1254 (10 OR 30%), Method: PREINCUBATION): inactive; negative

Question: Which mutagenic call [4] does the source give for `O=C(CBr)c1oc([N+](=O)[O-])c(Cl)c1Cl` here?
Answer: The mutagenic call was “active; positive”.

Question: And the mutagenic call (Test System: AMES SALMONELLA TYPHIMURIUM, Strain/Indicator: TA100 (NR), Metabolic Activation: NONE, Method: STANDARD PLATE)?
Answer: Its mutagenic call is “active; positive”.

Question: What about the mutagenic call [5] of the same compound?
Answer: Its mutagenic call is “active; positive”.

Question: And the mutagenic call (Test System: AMES SALMONELLA TYPHIMURIUM, Strain/Indicator: TA100, Metabolic Activation: NONE, Method: STANDARD PLATE (ANAEROBIC INCUBATION))?
Answer: The mutagenic call was “active; positive”.

Question: For `OC1CCCCC1`, which mutagenic call (Test System: AMES SALMONELLA TYPHIMURIUM, Strain/Indicator: TA98, Metabolic Activation: HAMSTER, LIVER, S-9, AROCLOR 1254, Method: PREINCUBATION) is on record?
Answer: Its mutagenic call is “inactive; negative”.

Question: What about the mutagenic call [1] of the same compound?
Answer: The mutagenic call was “inactive; negative”.

Question: And the mutagenic call (Test System: AMES SALMONELLA TYPHIMURIUM, Strain/Indicator: TA98, Metabolic Activation: RAT, LIVER, S-9, AROCLOR 1254, Method: PREINCUBATION)?
Answer: Its mutagenic call is “inactive; negative”.

Question: What about the mutagenic call (Test System: AMES SALMONELLA TYPHIMURIUM, Strain/Indicator: TA100, Metabolic Activation: HAMSTER, LIVER, S-9, AROCLOR 1254, Method: PREINCUBATION) of the same compound?
Answer: Its mutagenic call is “inactive; negative”.

Question: And the mutagenic call [2]?
Answer: Its mutagenic call is “inactive; negative”.

Question: And the mutagenic call (Test System: AMES SALMONELLA TYPHIMURIUM, Strain/Indicator: TA100, Metabolic Activation: RAT, LIVER, S-9, AROCLOR 1254, Method: PREINCUBATION)?
Answer: The mutagenic call was “inactive; negative”.

Question: And the mutagenic call (Test System: AMES SALMONELLA TYPHIMURIUM, Strain/Indicator: TA1535, Metabolic Activation: HAMSTER, LIVER, S-9, AROCLOR 1254, Method: PREINCUBATION)?
Answer: Its mutagenic call is “inactive; negative”.

Question: What about the mutagenic call [3] of the same compound?
Answer: Its mutagenic call is “inactive; negative”.

Question: And the mutagenic call (Test System: AMES SALMONELLA TYPHIMURIUM, Strain/Indicator: TA1535, Metabolic Activation: RAT, LIVER, S-9, AROCLOR 1254, Method: PREINCUBATION)?
Answer: Its mutagenic call is “inactive; negative”.

Question: And the mutagenic call (Test System: AMES SALMONELLA TYPHIMURIUM, Strain/Indicator: TA1537, Metabolic Activation: HAMSTER, LIVER, S-9, AROCLOR 1254, Method: PREINCUBATION)?
Answer: The mutagenic call was “inactive; negative”.

Question: What about the mutagenic call (Test System: AMES SALMONELLA TYPHIMURIUM, Strain/Indicator: TA1537, Metabolic Activation: NONE, Method: PREINCUBATION) of the same compound?
Answer: The mutagenic call was “inactive; negative”.

Question: And the mutagenic call (Test System: AMES SALMONELLA TYPHIMURIUM, Strain/Indicator: TA1537, Metabolic Activation: RAT, LIVER, S-9, AROCLOR 1254, Method: PREINCUBATION)?
Answer: The mutagenic call was “inactive; negative”.

Question: For `O=C1N=NC(=O)C2C=CC=CC12` (centres undefined), which mutagenic call (Test System: AMES SALMONELLA TYPHIMURIUM, Strain/Indicator: TA98, Metabolic Activation: HAMSTER, LIVER, S-9, AROCLOR 1254, Method: STANDARD PLATE) is on record?
Answer: Its mutagenic call is “inactive; negative”.

Question: And the mutagenic call [4]?
Answer: The mutagenic call was “inactive; negative”.

Question: And the mutagenic call [6]?
Answer: The mutagenic call was “inactive; negative”.

Question: And the mutagenic call (Test System: AMES SALMONELLA TYPHIMURIUM, Strain/Indicator: TA100, Metabolic Activation: HAMSTER, LIVER, S-9, AROCLOR 1254, Method: STANDARD PLATE)?
Answer: The mutagenic call was “inactive; negative”.

Question: And the mutagenic call [5]?
Answer: The mutagenic call was “inactive; negative”.

Question: What about the mutagenic call [7] of the same compound?
Answer: Its mutagenic call is “inactive; negative”.

Question: And the mutagenic call (Test System: AMES SALMONELLA TYPHIMURIUM, Strain/Indicator: TA1535, Metabolic Activation: HAMSTER, LIVER, S-9, AROCLOR 1254, Method: STANDARD PLATE)?
Answer: The mutagenic call was “inactive; negative”.

Question: And the mutagenic call (Test System: AMES SALMONELLA TYPHIMURIUM, Strain/Indicator: TA1535, Metabolic Activation: NONE, Method: STANDARD PLATE)?
Answer: The mutagenic call was “inactive; negative”.

Question: What about the mutagenic call (Test System: AMES SALMONELLA TYPHIMURIUM, Strain/Indicator: TA1535, Metabolic Activation: RAT, LIVER, S-9, AROCLOR 1254, Method: STANDARD PLATE) of the same compound?
Answer: The mutagenic call was “inactive; negative”.

Question: And the mutagenic call (Test System: AMES SALMONELLA TYPHIMURIUM, Strain/Indicator: TA1537, Metabolic Activation: HAMSTER, LIVER, S-9, AROCLOR 1254, Method: STANDARD PLATE)?
Answer: Its mutagenic call is “inactive; negative”.

Question: And the mutagenic call (Test System: AMES SALMONELLA TYPHIMURIUM, Strain/Indicator: TA1537, Metabolic Activation: NONE, Method: STANDARD PLATE)?
Answer: Its mutagenic call is “inactive; negative”.

Question: What about the mutagenic call (Test System: AMES SALMONELLA TYPHIMURIUM, Strain/Indicator: TA1537, Metabolic Activation: RAT, LIVER, S-9, AROCLOR 1254, Method: STANDARD PLATE) of the same compound?
Answer: Its mutagenic call is “inactive; negative”.

Question: What about the mutagenic call (Test System: AMES SALMONELLA TYPHIMURIUM, Strain/Indicator: TA1538, Metabolic Activation: HAMSTER, LIVER, S-9, AROCLOR 1254, Method: STANDARD PLATE) of the same compound?
Answer: The mutagenic call was “inactive; negative”.

Question: What about the mutagenic call (Test System: AMES SALMONELLA TYPHIMURIUM, Strain/Indicator: TA1538, Metabolic Activation: NONE, Method: STANDARD PLATE) of the same compound?
Answer: Its mutagenic call is “inactive; negative”.

Question: And the mutagenic call (Test System: AMES SALMONELLA TYPHIMURIUM, Strain/Indicator: TA1538, Metabolic Activation: RAT, LIVER, S-9, AROCLOR 1254, Method: STANDARD PLATE)?
Answer: Its mutagenic call is “inactive; negative”.

Question: And the mutagenic call (Test System: Mouse lymphoma, Strain/Indicator: L5178Y (tk+/tk-), Metabolic Activation: None, Method: Suspension/plate)?
Answer: Its mutagenic call is “inactive; negative”.

Question: And the mutagenic call (Test System: Mouse lymphoma, Strain/Indicator: L5178Y (tk+/tk-), Metabolic Activation: Rat, liver, S-9, Aroclor 1254, Method: Suspension/plate)?
Answer: The mutagenic call was “active; positive”.

Question: How did the mutagenic call (Test System: UDS RAT HEPATOCYTES, Strain/Indicator: THY-INCORP, Metabolic Activation: NONE, Method: AUTORADIOGRAPHY) turn out when `Cn1c(C(F)(F)F)cc2c(N3CCCC3)nc(N3CCCC3)nc21` was run?
Answer: The mutagenic call was “inactive; negative”.

Question: For `O=NN(CCc1c[nH]c2ccccc12)C1OC[C@@H](O)[C@H](O)[C@H]1O` (some centres undefined), which mutagenic call (Test System: AMES SALMONELLA TYPHIMURIUM, Strain/Indicator: TA100, Metabolic Activation: NONE, Method: LIQUID INCUBATION) is on record?
Answer: The mutagenic call was “active; positive”.

Question: What does the source list for `O=[N+]([O-])c1cc2c(cc3ccc4cccc5ccc2c3c45)o1`?
Answer: mutagenic call (Test System: AMES SALMONELLA TYPHIMURIUM, Strain/Indicator: TA98(NR), Metabolic Activation: NONE, Method: STANDARD PLATE): active; positive; mutagenic call (Test System: AMES SALMONELLA TYPHIMURIUM, Strain/Indicator: TA98(NR), Metabolic Activation: RAT, LIVER, S-9, AROCLOR 1254, Method: STANDARD PLATE): active; positive; mutagenic call [4]: active; positive; mutagenic call [6]: active; positive

Question: Which results are given for `CNP1(NC)=NP(NC)(NC)=NP(NC)(NC)=N1`?
Answer: mutagenic call [4]: inactive; negative; mutagenic call [6]: inactive; negative; mutagenic call [5]: inactive; negative; mutagenic call [7]: inactive; negative
